Assay results: patent publication US20100028259A1, “USE OF ORGANIC CATION TRANSPORTERS FOR CANCER DIAGNOSIS AND THERAPY” (The Regents of the University of California, priority 2006, published 2010)
Read-outs that look alike come from different tables or passages of the source.

Columns and labels:
HEK-hOCT2 cells = assay: MTT drug sensitivity assay in HEK-hOCT2 cells; format: cell-based, human
Procedure: (§1) Cytotoxicity of the platinum-based compounds was measured by MTT (thiazolyl blue tetrazolium bromide) assay. Cells were seeded in 100 μl of the culture medium without any antibiotics in 96-well plates at a predetermined cell density. For HEK 293 cells, poly-D-lysine coated plates were used. […] For the OCT inhibitor studies, the inhibitors (i.e., disopyramide or cimetidine) were added to the medium at a specified concentration immediately before the addition of the platinum-based compounds. After incubation for a specified time period, the drug-containing medium was replaced with fresh, drug-free medium and the incubation was continued for a total of 72 hours (start from the addition of platinum-based compounds). Then, the MTT assay was performed similarly as described in Alley et al., Cancer Res., 48:589-601 (1988). […] The maximal cell growth was the cell growth in the medium without any platinum-based compounds; C is the concentration of the platinum-based compound, and γ is the slope factor.
(§2) Briefly, the cells were seeded in 96-well plates at a density of 5,000 cells/well for the transfected MDCK cells or 12,000 cells/well for the transfected HEK 293 cells. The platinum-based drugs were added on the following day. After the specified time periods of drug exposure, the drug-containing medium was replaced with fresh, drug-free medium, and the incubation was continued for a total of 72 hours (start from the time when the drug was added). After incubation, the cell growth was determined by an MTT assay. Data are expressed as mean±SD from 3 to 6 independent experiments with each performed in quadruplicate. The resistance factor (RF) was defined as the ratio of the mean IC50 value in the MOCK cells to that in the OCT-transfected cells.

HEK-MOCK cells = assay: MTT drug sensitivity assay in HEK-MOCK cells (control of HEK-hOCT3); format: cell-based, human; conditions: Table 3
Procedure: Cytotoxicity of the platinum-based compounds was measured by MTT (thiazolyl blue tetrazolium bromide) assay. Cells were seeded in 100 μl of the culture medium without any antibiotics in 96-well plates at a predetermined cell density. For HEK 293 cells, poly-D-lysine coated plates were used. After overnight incubation, the platinum-based compounds were then added to the culture medium to give the indicated final concentrations. For the OCT inhibitor studies, the inhibitors (i.e., disopyramide or cimetidine) were added to the medium at a specified concentration immediately before the addition of the platinum-based compounds. After incubation for a specified time period, the drug-containing medium was replaced with fresh, drug-free medium and the incubation was continued for a total of 72 hours (start from the addition of platinum-based compounds). Then, the MTT assay was performed similarly as described in Alley et al., Cancer Res., 48:589-601 (1988). […] The maximal cell growth was the cell growth in the medium without any platinum-based compounds; C is the concentration of the platinum-based compound, and γ is the slope factor.
as §2

HT29 = assay: MTT drug sensitivity, colon cancer cell line HT29; format: cell-based, human
Procedure: as §1
(§3) The cell seeding density was 6,000-, 8,000-, 6,000-, 15,000-12,000- and 4,000 cells/well for HCT116, HT29, RKO, SW620, LS180, and DLD cells, respectively. When cimetidine (1.5 mM) was used, it was added to the wells immediately before the addition of the platinum-based drugs. The resistance factor (RF) was defined as the ratio of the mean IC50 value in the presence to that in the absence of cimetidine. Data are expressed as mean±SD from six measurements, and each measurement was performed in quadruplicate.

LS180 = assay: MTT drug sensitivity, colon cancer cell line LS180; format: cell-based, human
Procedure: as §1, §3

[1] = test system: six colon cancer cell lines; assay: MTT drug sensitivity, summary over the six colon cancer cell lines; format: cell-based, human
Procedure: as §1
The resistance factor (RF) due to the presence of cimetidine was defined as the ratio of the IC50 value in the presence of cimetidine to that in the absence of cimetidine.
as §3

MDCK-MOCK cells = assay: Platinum-DNA adduct formation in MDCK-MOCK cells; format: cell-based, canine
Procedure: After incubation at 37° C. and 5% CO2 for 2 hours, the cells were washed with ice-cold PBS three times and harvested. The genomic DNA was isolated from the cells and the platinum content associated with DNA was determined by ICP-MS and normalized for DNA content. Data are expressed as mean±SD from a typical experiment performed in triplicate. Two independent experiments were conducted and similar results were obtained.
After incubation, the cells were washed with ice-cold PBS three times and harvested. Genomic DNA was isolated from the harvested cells and the DNA-associated platinum content was determined by ICP-MS and normalized for the DNA content. Data are expressed as mean±SD of three measurements.
The platinum content associated with genomic DNA was determined as described in Samimi et al., Clin. Cancer Res., 10:4661-4669 (2004) with some modifications. Briefly, the cells were grown in 100 mm×20 mm dishes in the culture medium without any antibiotics to over 90% confluence. For HEK 293 cells, poly-D-lysine coated dishes were used. Then, the cells were incubated in the culture medium containing the specified concentrations of the platinum-based compounds at 37° C. in 5% CO2 for 2 hours (or 25 min as specified). In some experiments, phosphate buffer (PB: 1.06 mM KH2PO4, 2.97 mM Na2HPO4, pH 7.4) containing 155 mM NaCl (PB—Cl buffer) or 103 mM Na2SO4 (PB—SO4 buffer) was used instead of the culture medium as specified. For the OCT inhibitor study, the incubation medium (buffer) also contained disopyramide or cimetidine). If PB—Cl or PB—SO4 buffer was used, the cells were washed with the same buffer once before drug incubation. After incubation, the cells were washed with ice-cold PBS, scraped, and pelleted. Genomic DNA was isolated from the cell pellets using the Wizard® Genomic DNA Purification Kit (Promega, Madison, Wis.) following the manufacturer's instructions. Briefly, the cells were lysed with Nuclei Lysis Solution. After RNA digestion and protein precipitation, the lysates were centrifuged and the resulting supernatant was aliquoted. The genomic DNA prepared from two different aliquots of the supernatant was used for platinum and DNA content determination, respectively. For the determination of platinum, the DNA samples were treated with 70% nitric acid at 65° C. and diluted in the same way as described above. The platinum content was analyzed using ICP-MS and the DNA content was measured by absorption spectroscopy.

For `O=C1[O][Pt]2([NH][C@@H]3CCCC[C@H]3[NH]2)[O]C1=O` [oxaliplatin], which IC50 (HEK-hOCT2 cells; co-incubation with cimetidine 1.5 mM, read-out: IC50 in HEK-hOCT2, cimetidine-treated) is on record?
Its IC50 is 2.81 ± 1.63 µM.

What about the IC50 (HEK-hOCT2 cells; drug exposure 7 hour, read-out: IC50 HEK-hOCT2) of the same compound?
The IC50 was 0.039 ± 0.025 µM.

And the IC50 (HEK-hOCT2 cells; drug exposure 24 hour, read-out: IC50 HEK-hOCT2)?
The IC50 was 0.02 ± 0.001 µM.

And the IC50 (HEK-hOCT2 cells; drug exposure 72 hour, read-out: IC50 HEK-hOCT2)?
The IC50 was 0.019 ± 0.004 µM.

And the IC50 (HEK-MOCK cells; drug exposure 7 hour)?
The IC50 was 1.47 ± 0.28 µM.

What about the IC50 (HEK-MOCK cells; drug exposure 24 hour) of the same compound?
Its IC50 is 0.47 ± 0.05 µM.

And the IC50 (HEK-MOCK cells; drug exposure 72 hour)?
Its IC50 is 0.47 ± 0.12 µM.

And the IC50 (HT29; HT29, absence of cimetidine, read-out: IC50 Control)?
The IC50 was 4.56 ± 1.4 µM.

What about the IC50 (HT29; HT29, cimetidine 1.5 mM, read-out: IC50 Cimetidine-treated) of the same compound?
Its IC50 is 52.1 ± 18.5 µM.

What about the IC50 (LS180; LS180, absence of cimetidine, read-out: IC50 Control) of the same compound?
Its IC50 is 1.3 ± 0.41 µM.

What about the IC50 (LS180; LS180, cimetidine 1.5 mM, read-out: IC50 Cimetidine-treated) of the same compound?
The IC50 was 8.39 ± 2.77 µM.

What about the IC50 ([1]; absence of cimetidine, read-out: mean±SE of IC50 in the six cell lines, control) of the same compound?
The IC50 was 3.88 ± 1.42 µM.

What about the IC50 ([1]; cimetidine 1.5 mM, read-out: mean±SE of IC50 in the six cell lines, in the presence of cimetidine) of the same compound?
The IC50 was 29.1 ± 10.7 µM.

What about the “DNA-associated platinum level in MDCK-MOCK” value (MDCK-MOCK cells; 20 μM, PB—Cl, 25 min) of the same compound?
The value was 0.0034±0.00087 pmol/μg DNA.

What about the “rb in MDCK-MOCK” value (MDCK-MOCK cells; 20 μM, PB—Cl, 25 min) of the same compound?
Its value is 1.12±0.29×10^−6.

What about the “Pt-DNA adduct level in MDCK-MOCK” value (MDCK-MOCK cells; 20 μM, PB—SO4, 25 min) of the same compound?
The value was 0.0032±0.00042 pmol/μg DNA.

And the “rb in MDCK-MOCK” value (MDCK-MOCK cells; 20 μM, PB—SO4, 25 min)?
The value was 1.05±0.14×10^−6.

And the “platinum-DNA adduct level in MDCK-MOCK” value (MDCK-MOCK cells; 2-hr exposure, oxaliplatin 10 μM, culture medium)?
The value was 0.0110±0.0010 pmol/μg DNA.

What about the “effect of disopyramide on platinum-DNA adduct formation in MDCK-MOCK” value (MDCK-MOCK cells; disopyramide 150 μM) of the same compound?
The value was “no effect”.
